Consider one compound from patent publication US4020076A, “Novel phosphoryloxy-thiazoles” (priority 1974, dated 1977).

Molecules are shown by their SMILES. Read-outs that look alike come from different tables or passages of the source.

What all share (type): in vivo
Test [1] relates to Blattella germanica. In words: Topical application activity against Blattella germanica. The settings on record: read-out: percent of mortality. The protocol: b. Activity against Blattella germanica
This test was a topical application in which adult male Blattella germanica received 2 microliters of an acetone solution of the test products between the second and third pair of paws. After this treatment, the test insects were held in a dim light at 20° C and were fed. The results expressed as percent of mortality in Table II were read 24 and 48 hours and 5 days after the treatment.

Test [2] concerns Ditylenchus Myceliophagus. In words: Acaricide activity, Ditylenchus Myceliophagus. The settings on record: 24 h, 0.1 g/l, read-out: Percent of mortality after 24 hours. The protocol: In an apparatus containing 10 ml of an aqueous solution of the test product, 0.5 ml of water containing about 2000 acariens of Ditylenchus Myceliophagus were added thereto and the percent of mortality was determined by a binocular magnifying glass after 24 hours.

The test system of test [3] is Meloidogynes spec. In words: Nematocidal activity against Meloidogynes spec (tomato root galls). The conditions noted are these: 250 Kg/ha. The protocol: a. Activity against Meloidogynes spec
A volume of about 3 liters of dirt infested with Meloidogynes spec was placed in a plastic sack. Nematocidal treatments are considered effective to a depth of 30 cm, a volume of 3 liters of dirt corresponding to a surface area of 100 cm^ 2 or 10^-^6 ha (since 100 cm^ 2 × 30 cm = 3000 ml or 3 liters). Each volume of infested dirt received 100 ml of an aqueous suspension containing 0.250 g of the test product (corresponding to 250 Kg/ha) and the controls received only 100 ml of water. The plastic sacks containing the dirt were immediately sealed after the treatment and then agitated to obtain a good distribution of the product. Two weeks after the treatment, the sacks were opened and the dirt was used to plant 3 tomato plants of St. Pierre variety. The plants used were raised in the greenhouse with dirt sterilized with heat to obtain plants free of nematodes. Three plants were used for each test which was run 6 times for each treatment. Two months after planting the tomatoes were removed from the dirt and the efficacy was determined by counting the number of galls observed on the roots. A correlation between the population of Meloidogynes in the pot and the number of galls exists.

In the case of `CCOc1nc(OP(=S)(OC)OC)c(C#N)s1` [Compound C, 2-ethoxy-4-dimethoxythiophosphoryloxy-5-cyano-thiazole], in test [1] (24 H), the mortality at 312.5 ppm came to 80%, the mortality at 625 ppm amounted to 100% and the mortality at 1250 ppm was found to be 100%. In test [1] (48 H), the mortality at 312.5 ppm is 80%, the mortality at 625 ppm stood at 100% and the mortality at 1250 ppm worked out at 100%. Besides, in test [1] (120 h, 5 Days), the mortality at 312.5 ppm came to 80%, the mortality at 625 ppm was 100% and the mortality at 1250 ppm turned out to be 100%. Moreover, the mortality at 100 µg/mL in test [2] was 66.8%. Also, the “Relative efficacity in % as compound to controls” value in test [3] turned out to be 67.4%. Also, in test [3] (control 44.4), the “Number of galls per foot” value is 32.77. The “Total number of galls” value in test [3] (control 222) is 295.

By mortality is commonly meant the percentage killed.
